The values below come from patent US20230105212A1, “BIPHENYL DERIVATIVE INHIBITOR, PREPARATION METHOD THEREFOR AND USE THEREOF” (SHANGHAI HANSOH BIOMEDICAL CO., LTD., priority 2020, published 2023).

The target of series [1] is T1, human PD-L1 protein (Homo sapiens, UniProt Q9NZQ7).
T1 construct: purchased Acro Biosystems PD1-H5229
The experiment in a line: Thermal shift: melting temperature of PD-L1 protein. It counts as binding. The following applies: read-out: ΔTm (° C.). In outline: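 Human PD-L1 at 2 μM final was tested in […], 150 mM NaCl with SYPRO Orange, heated 25→95 °C at 0.03 °C/s in a PCR melt-curve run. Tm was taken per treatment; ΔTm is the shift relative to DMSO vehicle.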

Series [2] has as its target T2, PD-L1 protein on the surface of MC38-hPDL1 tumor cells (Homo sapiens, UniProt Q9NZQ7).
T2 construct: expressed in transfected cells; host or cells: MC38-hPDL1 (mouse colon cancer cells)
Nature of the series: Induction of endocytosis of PD-L1 on the surface of tumor cells (flow cytometry). It counts as cell-based. Particulars: 16 hours incubation; for Emax: MC38-hPDL1 cells, read-out: MC38 maximum endocytosis rate; for pIC50: inducing endocytosis of PD-L1, MC38-hPDL1 cells, read-out: MC38 IC50. In outline: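 IC50 comes from nonlinear fits of endocytosis rate, calculated from the loss of surface PE-anti-CD274 flow signal relative to vehicle. Cells were MC38 mouse colon cancer cells engineered to express high human PD-L1. Compound exposure lasted 16 h at 37 °C, 5% CO2.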
(Flow cytometry measures light scatter and fluorescence of single cells or particles in a stream.)

Series [3] is described as follows: Pharmacokinetics test in Balb/C mice. The following applies: male, mouse, po, p.o. 5 mg/kg, plasma. It counts as in vivo. As to the method:
Test Embodiment 6. Pharmacokinetics Test in Balb/C Mice
Taking Balb/C mice as the test animals, the pharmacokinetic behavior in the plasma of mice of the following compound embodiments was studied when orally administered at a dose of 5 mg/kg.
Balb/C Mouse 6/embodiment, male, Shanghai Jisijie Laboratory Animal Co., Ltd., animal production license number (SCXK (Shanghai) 2013-0006 No. 311620400001794).
0.5% HPMC (1% Tween 80), dissolved by sonication, to prepare a clear solution or a homogeneous suspension.
Balb/C mice, male; p.o. after overnight fasting, respectively, at a dose of 5 mg/kg, administered in a volume of 10 mL/kg.
Before and after administration of mice, at 0, 0.5, 1, 2, 4, 6, 8 and 24 hours, 0.1 mL of blood was collected from the orbit, placed in an EDTA-K2 test tube, and centrifuged at 6000 rpm at 4° C. for 6 min to separate the plasma, stored at −80° C.
1) 40 μL of plasma samples were added to 160 μL of acetonitrile for precipitation, mixed and centrifuged at 3500×g for 5 to 20 minutes.
2) 100 μL of the supernatant solution after treatment was taken for LC/MS/MS to analyze the concentration of the compounds to be tested.
2.6 Liquid Phase Analysis • Liquid phase condition: Shimadzu LC-20AD pump • MS conditions: AB Sciex API 4000 Mass Spectrometer • Chromatographic column: phenomenex Gemiu 5 μm C18 50×4.6 mm • Mobile phase: A solution was aqueous 0.1% formic acid solution, B solution was acetonitrile • Flow rate: 0.8 mL/min • Elution time: 0 to 4.0 minutes, the eluent was as follows:
The main parameters of pharmacokinetics were calculated with WinNonlin 8.2, and the results of the mice pharmacokinetic experiments were shown in the following table: […]

For series [4], the target named is T3, human PD-1/PD-L1 binding (Homo sapiens, UniProt Q9NZQ7).
T3 construct: PD-L1-His protein (19 to 238 amino acids) (Abcam #ab167713); purchased Abcam (PD-L1-His); R&D (PD-1-Fc) ab167713; 1086-PD
Nature of the series: Inhibition of human PD-1/PD-L1 binding (TR-FRET/HTRF). The following applies: TR-FRET, PD-L1-His and PD-1-Fc; read-out: PD-1/PD-L1 binding IC50. An outline of the steps: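 PD-L1-His (aa 19–238, diluted to 10 nM) and PD-1-Fc (aa 25–167, diluted to 20 nM) incubated with compounds (10 μM or 1 μM top, 3-fold, 11 doses) 60 min at room temperature, then anti-6HIS Eu cryptate/anti-human IgG-XL665 added for 3 h RT or overnight 4 °C. HTRF 665/620 nm ratio gave inhibition and IC50.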
(Time-resolved FRET reads energy transfer from a long-lived donor to a nearby acceptor.)

[5] abbreviates: compound 10 μM, PD-L1 protein 2 μM, Tm minus DMSO vehicle control.

pIC50: −log10 of the molar value. Read-outs that look alike come from different tables or passages of the source.

T3 sequence (Q9NZQ7 19-238): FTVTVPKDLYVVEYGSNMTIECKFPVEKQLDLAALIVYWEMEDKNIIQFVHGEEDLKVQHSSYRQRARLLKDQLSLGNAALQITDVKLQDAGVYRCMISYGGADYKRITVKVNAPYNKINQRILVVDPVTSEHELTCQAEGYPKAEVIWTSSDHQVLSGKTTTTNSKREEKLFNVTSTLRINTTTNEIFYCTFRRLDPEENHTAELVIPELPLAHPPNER
T1 sequence (Q9NZQ7 19-238 limits assumed): as the sequence (Q9NZQ7 19-238) above
T2 sequence (Q9NZQ7 19-290): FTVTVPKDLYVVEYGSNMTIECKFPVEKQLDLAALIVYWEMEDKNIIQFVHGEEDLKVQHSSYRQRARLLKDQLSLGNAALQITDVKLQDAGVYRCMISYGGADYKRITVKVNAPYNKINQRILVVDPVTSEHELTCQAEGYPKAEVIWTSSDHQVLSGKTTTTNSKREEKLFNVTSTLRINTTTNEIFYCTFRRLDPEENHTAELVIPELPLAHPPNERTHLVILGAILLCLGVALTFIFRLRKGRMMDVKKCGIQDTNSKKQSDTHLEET

By ΔTm is commonly meant the shift of the melting midpoint relative to a reference. The term Tmax denotes the time from dosing to the highest level. `COc1nc(-c2cccc(-c3cccc(NC(=O)c4nc5c(n4C)CCN(C)C5)c3Cl)c2Cl)ccc1CN[C@@H]1CCCC[C@@H]1O` [Embodiment 176, N-(2,2′-Dichloro-3′-(5-((((1R,2S)-2-hydroxycyclohexyl)amino)methyl)-6-methoxypyridin-2-yl)-[1,1′-biphenyl]-3-yl)-1,5-dimethyl-4,5,6,7-tetrahydro-1H-imidazo[4,5-c]pyridine-2-carboxamide]: in series [1] (setting [5]), the ΔTm at 10 µM was found to be 24.3 °C. In addition, in series [2], the Emax is 97% and the pIC50 was 8.92. Further, the MRT inf in series [3] (read-out: Average residence time MRT0−∞) was 21.6 h. For the same molecule, the AUC(0-t) in series [3] (read-out: Curve area AUC0−t) was 629 ng·h/mL. Also, the Cmax in series [3] (read-out: Drug concentration in plasma Cmax) was found to be 55 ng/mL. Also, the half-life in series [3] (read-out: Half life t1/2 (converted)) was 15.2 h. The Tmax in series [3] (read-out: Peak time tmax) worked out at 2 h.
In the case of `CCn1c(C(=O)Nc2cccc(-c3cccc(-c4ccc(CN5CC6(C5)CN(C(C)=O)C6)c(OC)n4)c3Cl)c2Cl)nc2c1CCN(C)C2` [Embodiment 238, N-(3′-(5-((6-Acetyl-2,6-diazaspiro[3.3]heptan-2-yl)methyl)-6-methoxypyridin-2-yl)-2,2′-dichloro-[1,1′-biphenyl]-3-yl)-1-ethyl-5-methyl-4,5,6,7-tetrahydro-1H-imidazo[4,5-c]pyridine-2-carboxamide], in series [1] (setting [5]), the ΔTm at 10 µM came to 10.8 °C. Further, the pIC50 in series [4] is 8.39. Moreover, the Emax in series [2] came to 95%.
`COc1nc(-c2cccc(-c3cccc(NC(=O)c4nc5c(n4C)CCN(C)C5)c3Cl)c2Cl)ccc1CN1CC[C@H]1C(=O)O` [Embodiment 171, (S)-1-((6-(2,2′-Dichloro-3′-(1,5-dimethyl-4,5,6,7-tetrahydro-1H-imidazo[4,5-c]pyridine-2-carboxamido)-[1,1′-biphenyl]-3-yl)-2-methoxypyridin-3-yl)methyl)azetidine-2-carboxylic acid]: the ΔTm at 10 µM in series [1] came to 10.3 °C. The pIC50 in series [4] is 9.05. For the same molecule, the Emax in series [2] worked out at 93%.
Consider `COc1nc(-c2cccc(-c3cccc(NC(=O)c4nc5c(n4C)CCN(C)C5)c3Cl)c2Cl)ncc1CNCCO` [Embodiment 229, N-(2,2′-Dichloro-3′-(5-(((2-hydroxyethyl)amino)methyl)-4-methoxypyrimidin-2-yl)-[1,1′-biphenyl]-3-yl)-1,5-dimethyl-4,5,6,7-tetrahydro-1H-imidazo[4,5-c]pyridine-2-carboxamide], for which the ΔTm at 10 µM in series [1] (setting [5]) worked out at 12 °C. Also, in series [4], the pIC50 is 8.49. Besides, in series [2], the Emax worked out at 95%.
For `CCn1c(C(=O)Nc2cccc(-c3cccc(-c4ccc(CN5CC(CO)C5)c(OC)n4)c3Cl)c2Cl)nc2c1CCN(C)C2` [Embodiment 239, N-(2,2′-Dichloro-3′-(5-((3-(hydroxymethyl)azetidin-1-yl)methyl)-6-methoxypyridin-2-yl)-[1,1′-biphenyl]-3-yl)-1-ethyl-5-methyl-4,5,6,7-tetrahydro-1H-imidazo[4,5-c]pyridine-2-carboxamide], in that order: 11.9 °C, 8.31 and 95%.
In the case of `COc1nc(-c2cccc(-c3cccc(NC(=O)c4nc5c(n4C)CCN(C)C5)c3Cl)c2Cl)ccc1CN1C2CC1CN(C(C)=O)C2` [Embodiment 209, N-(3′-(5-((3-Acetyl-3,6-diazabicyclo[3.1.1]heptan-6-yl)methyl)-6-methoxypyridin-2-yl)-2,2′-dichloro-[1,1′-biphenyl]-3-yl)-1,5-dimethyl-4,5,6,7-tetrahydro-1H-imidazo[4,5-c]pyridine-2-carboxamide], in series [1] (setting [5]), the ΔTm at 10 µM was 10.7 °C. The pIC50 in series [4] is 8.15. The Emax in series [2] came to 90%.
For `CCn1c(C(=O)Nc2cccc(-c3cccc(-c4ccc(CN[C@H]5CCOC[C@@H]5O)c(OC)n4)c3Cl)c2Cl)nc2c1CCN(C)C2` (relative stereo) [Embodiment 235, N-(2,2′-Dichloro-3′-(5-(((trans-3-hydroxytetrahydro-2H-pyran-4-yl)amino)methyl)-6-methoxypyridin-2-yl)-[1,1′-biphenyl]-3-yl)-1-ethyl-5-methyl-4,5,6,7-tetrahydro-1H-imidazo[4,5-c]pyridine-2-carboxamide], in that order: 11.3 °C, 8.19 and 93%.
With `COc1nc(-c2cccc(-c3cccc(NC(=O)c4nc5c(n4C)CCN(C)C5)c3Cl)c2Cl)ccc1CNCC(=O)O` [Embodiment 138, ((6-(2,2′-Dichloro-3′-(1,5-dimethyl-4,5,6,7-tetrahydro-1H-imidazo[4,5-c]pyridine-2-carboxamido)-[1,1′-biphenyl]-3-yl)-2-methoxypyridin-3-yl)methyl)glycine], the ΔTm at 10 µM in series [1] (setting [5]) turned out to be 14 °C. The pIC50 in series [4] was 9.10. For the same molecule, in series [2], the Emax amounted to 97% and the pIC50 is 8.35.
For `COc1nc(-c2cccc(-c3cccc(NC(=O)c4nc5c(n4C)CCN(C)C5)c3Cl)c2Cl)ccc1CN1CC(OC(C)=O)C1` [Embodiment 122, 1-((6-(2,2′-Dichloro-3′-(1,5-dimethyl-4,5,6,7-tetrahydro-1H-imidazo[4,5-c]pyridine-2-carboxamido)-[1,1′-biphenyl]-3-yl)-2-methoxypyridin-3-yl)methyl)azetidin-3-yl acetate], in that order: 14.8 °C, 8.46, 97% and 9.40.
